The structures appear in SMILES notation. Peptide text beside a SMILES is read from it.

Here are results for three compounds from patent publication US20260115250A1, “METHODS OF TREATING AGE-RELATED MACULAR DEGENERATION” (Character Biosciences, Inc., priority 2022, published 2026).

Experiment [1] deals with HepG2 cells. The experiment is described as follows: HepG2 GAG dependent cholesterol import (with or without heparin). It counts as cell-based. To be noted: HepG2, 10 μM peptide, with or without 100 μg/mL heparin. As for the experimental part: (§1) HepG2 cells were seeded on 96-well plates at 10,000 cells per well and grown to confluence. A 2× solution of 500 μM DMPC and 50 μM BODIPY-Cholesterol with or without 100 μg/mL heparin was prepared in serum free EMEM. Peptides were diluted to 20 μM in serum-free EMEM (a 2× solution). Peptides were added to lipid solution in equal parts (60 μL each) and incubated for 1 hour at 37° C. HepG2 cells were serum starved in serum-free EMEM for 1 hour at 37° C. Peptide: Lipid complexes (100 μL total volume per well) were transferred to HepG2 cells for 2 hours at 37° C. Cells were washed, fixed, and intracellular fluorescence was read on Promega GloMax at 475 nm excitation, 500-550 emission. Fluorescence values were background corrected from no treatment conditions. Data are presented ±SD for 2 runs.

Experiment [2] deals with ARPE-19 cells. The experiment is described as follows: ARPE-19 GAG-dependent cholesterol import (with or without heparin). It counts as cell-based, human. To be noted: ARPE-19, 10 μM peptide. As for the experimental part: as §1, with “ARPE-19” for “HepG2”, “25,000” for “10,000”, “µg/mL” for “μg/mL”, “DMEM: F12.” for “EMEM.”, “serum free DMEM: F12” for “serum-free EMEM”
Experiment [3] has as its system HepG2 cells. Kind of experiment: HepG2 cholesterol import (BODIPY-Cholesterol). It counts as cell-based. To be noted: HepG2, peptide:lipid complexes from 30 μM diluted 1:3.
Method: HepG2 cells were seeded on a 96-well plate at 10,000 cells per well and grown to confluence. A solution of 500 μM DMPC and 50 μM BODIPY-Cholesterol was prepared in serum free EMEM. Peptides were diluted to 20 μM in serum free EMEM (a 2× solution). Peptides were added to lipid solution in equal parts (60 μL each) to create final 1× concentration and incubated for 1 hour at 37° C. HepG2 cells were serum starved in serum-free EMEM for 1 hour at 37° C. Peptide: Lipid complexes (100 μL total volume per well) were transferred to HepG2 cells for 2 hours at 37° C. Cells were washed, fixed, and intracellular fluorescence was read on Promega GloMax at 475 nm excitation, 500-550 emission. Fluorescence values were background corrected from no treatment conditions. Data are presented as mean+SD for two runs.
HepG2 cells were seeded on 96-well plates at 10,000 cells per well and grown to confluence. Peptide: Lipid complexes were created by preparing a solution of serum-free EMEM containing 30 μM peptide, 750 μM DMPC, and 75 μM BODIPY-Cholesterol. Peptide: Lipid complexes were serially diluted 1:3 for 5 concentrations, and incubated for 1 hour at 37° C. […] Cells were washed, fixed, and intracellular fluorescence was read on Promega GloMax at 475 nm excitation, 500-550 emission. Fluorescence values were background corrected from no treatment conditions. […]
Experiment [4] relates to ARPE-19 cells. Kind of experiment: ARPE-19 cholesterol import (BODIPY-Cholesterol). It is filed as cell-based, human. The method, then:
FIG. 12 and FIGS. 14A-14B illustrate the results of ARPE-19 cholesterol import testing. ARPE-19 cells were seeded on 96-well plates at 25,000 cells per well and grown to confluence. A 2× solution of 500 μM DMPC and 50 μM BODIPY-Cholesterol were prepared in serum free DMEM: F12. Peptides were diluted to 20 μM in serum free DMEM: F12 (a 2× solution). Peptides were added to lipid solution in equal parts (60 μL each) and were incubated for 1 hour at 37° C. ARPE-19 cells were serum starved in serum free DMEM: F12 for 1 hour at 37° C. Peptide: Lipid complexes (100 μL total volume per well) were transferred to ARPE-19 cells for 2 hours at 37° C. Cells were washed, fixed, and intracellular fluorescence was read on Promega GloMax at 475 nm excitation, 500-550 emission. Fluorescence values were background corrected from no treatment conditions. Data are presented as mean+SD for two runs.
FIG. 15 illustrates ARPE-19 cholesterol import titration curves for a subset of the peptides. ARPE-19 cells were seeded on 96-well plates at 25,000 cells per well and grown to confluence. A 2× solution of 500 μM DMPC and 50 μM BODIPY-Cholesterol was prepared in serum free DMEM: F12. Peptides were diluted to 0.74-60 μM in serum free DMEM: F12 (2× solutions). Peptides were added to lipid solution in equal parts (60 μL each) to create final peptide concentrations of 0.37-30 µM and incubated for 1 hour at 37° C. ARPE-19 cells were serum starved in serum free DMEM: F12 for 1 hour at 37° C. Peptide: Lipid complexes (100 μL total volume per well) were transferred to ARPE-19 cells for 2 hours at 37° C. Cells were washed, fixed, and intracellular fluorescence was read on Promega GloMax at 475 nm excitation, 500-550 emission. Fluorescence values were background corrected from no treatment conditions. […]
ARPE-19 cells were seeded on 96-well plates at 25,000 cells per well and grown to confluence. […] Cells were washed, fixed, and intracellular fluorescence was read on Promega GloMax at 475 nm excitation, 500-550 emission. Fluorescence values were background corrected from no treatment conditions. […]

In experiment [5] the test system is ARPE-19 cells. The experiment is described as follows: ARPE-19 cell lysis (Sytox Green). It is filed as cell-based, human. To be noted: 3.16-100 μM peptide, 2 h. As for the experimental part: These figures illustrate ARPE-19 cell lysis. ARPE-19 cells were grown in 96-well plates to 75-85% confluence. Peptides at 10 mM were diluted in serum-free DMEM:F12 media into a 20 μM working solution (a 2× solution). Sytox Green was prepared in serum-free DMEM:F12 at a 1 μM working solution (a 2× solution). Equivalent volumes of the peptide and Sytox Green solutions were added to empty 96-well plates and mixed gently. Final peptide concentration was 10 μM. ARPE-19 cells (˜80% confluent in 96-well plates) were washed with DPBS and then incubated in 100 μL of peptide/Sytox Green mixture for 2 h at 37° C. Cells were fixed in 4% paraformaldehyde solution in DPBS and then incubated in 10 μM Hoechst solution for 10 min, washed, and imaged on a Yokogawa CQ1 high-content imager. CellPathfinder software was used to count live/dead cells in 4 fields of view at 20× magnification. Percent (%) lysis was calculated by dividing the number of Sytox Green+ nuclei by the total number of Hoechst+ nuclei.
ARPE-19 cells were grown in 96-well plates to 75-85% confluence. Peptides at 10 mM were diluted in serum-free DMEM: F12 media to solutions between […]. Sytox Green was prepared in serum-free DMEM: F12 media at a 1 μM working solution. Equivalent volumes of the peptide and Sytox Green solutions were added to empty 96-well plates and mixed gently. Final peptide concentration was 3.16-100 μM. ARPE-19 cells (˜80% confluent in 96-well plates) were washed with DPBS and then incubated in 100 μL of peptide/Sytox Green mixture for 2 h at 37° C. Cells were fixed in 4% paraformaldehyde solution in DPBS and then incubated in 10 μM Hoechst solution for 10 min, washed, and imaged on a Yokogawa CQ1 high-content imager. CellPathfinder software was used to count live/dead cells in 4 fields of view at 20× magnification. Percent (%) lysis was calculated by dividing the number of Sytox Green+ nuclei by the total number of Hoechst+ nuclei. Non-linear regression was used to calculate EC50 values.

The nature of experiment [6]: DMPC solubility assay, 0.5 mM DMPC (turbidity reduction). It is filed as biochemical. To be noted: for DMPC solubilizing activity: FIGS. 2A-2D and 3A-3C. The gist of the method: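 Peptides (100 μM final, or 3.16-100 μM for titrations) incubated with 0.5 mM DMPC in water for 15 minutes at room temperature. Turbidity read as absorbance at 405 nm; EC50 from non-linear regression, mean+SD over two runs.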

The next experiment deals with LDLR (Homo sapiens, UniProt P01130). Kind of experiment: KD (µM). The source says: Table printed on a drawing sheet, FIG. 23
LDLR, sequence (P01130 22-860 limits assumed): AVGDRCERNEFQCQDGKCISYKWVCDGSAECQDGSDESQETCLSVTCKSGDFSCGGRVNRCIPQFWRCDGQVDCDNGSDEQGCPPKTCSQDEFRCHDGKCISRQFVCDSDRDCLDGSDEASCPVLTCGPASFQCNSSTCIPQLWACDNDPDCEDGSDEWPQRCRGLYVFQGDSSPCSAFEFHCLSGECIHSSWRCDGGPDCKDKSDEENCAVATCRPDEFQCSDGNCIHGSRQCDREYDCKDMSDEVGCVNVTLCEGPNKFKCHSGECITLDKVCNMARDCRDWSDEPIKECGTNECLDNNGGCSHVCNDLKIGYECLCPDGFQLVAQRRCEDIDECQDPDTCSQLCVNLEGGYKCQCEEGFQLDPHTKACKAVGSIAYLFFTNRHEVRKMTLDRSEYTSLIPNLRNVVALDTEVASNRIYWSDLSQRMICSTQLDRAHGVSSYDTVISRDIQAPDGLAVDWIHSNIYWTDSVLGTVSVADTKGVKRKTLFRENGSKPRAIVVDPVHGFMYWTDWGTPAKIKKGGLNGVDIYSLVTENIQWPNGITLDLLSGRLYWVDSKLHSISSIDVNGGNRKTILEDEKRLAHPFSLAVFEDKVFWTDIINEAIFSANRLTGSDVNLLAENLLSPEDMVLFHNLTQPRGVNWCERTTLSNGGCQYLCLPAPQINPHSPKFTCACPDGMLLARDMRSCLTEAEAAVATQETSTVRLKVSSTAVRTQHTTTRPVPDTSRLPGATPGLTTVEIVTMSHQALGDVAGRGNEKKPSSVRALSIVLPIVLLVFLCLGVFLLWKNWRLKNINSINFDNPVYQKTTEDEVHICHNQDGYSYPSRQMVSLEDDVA
Title: Buffer: HBS + 0.05% P20
Head of the field: KD (µM)
The patent's description of the figure: FIG. 23 is a table showing the binding kinetics results of LDLR binding assays (SPR), high surfactant preparation as described herein for select peptides shown in FIG. 1A-1I.
First copying reader's note: Middle of three side-by-side panels of FIG. 23; the KD cells hold value ± error together.
Where the first naming reader finds the target: description_of_the_figure: FIG. 23 is a table showing the binding kinetics results of LDLR binding assays (SPR)

The nature of experiment [7]: DMPC solubility titration, 1 mM DMPC. It is filed as biochemical. To be noted: 3.16-100 μM peptides, 15 minutes. The method, then: FIGS. 4A-4B illustrate a screening assay based on DMPC solubility, measured by reducing turbidity of DMPC liposome solutions, for a subset of the peptides in FIGS. 1B-1I. FIGS. 4A-4B illustrate DMPC solubility titration curves. Peptide stocks were diluted to 200 μM in H2O (a 2× solution) and serially diluted in H2O over 4 concentrations, then 50 μL of peptide solutions were distributed in triplicate into 96-well plates. A 2 mM solution of 1,2-dimyristoyl-sn-glycero-3-phosphocholine (DMPC) in H2O was prepared, and using a multichannel pipet, 50 μL DMPC solution was rapidly added to the plate. Peptide and lipid solutions were incubated at room temperature for 15 minutes with final concentrations of 3.16-100 μM peptides and 1 mM DMPC. After 15 minutes, absorbance was read on a plate reader at 405 nm. […] Data are presented as mean+SD over two runs. Non-linear regression was used to calculate EC50 values.

The next experiment concerns HMC3 cells. Kind of experiment: HMC3 cholesterol efflux. It is filed as cell-based, human.

Take `CSCC[C@H](NC(=O)[C@H](CC(C)C)NC(=O)[C@H](CC(=O)O)NC(=O)[C@H](CCCCN)NC(=O)CNC(=O)[C@H](Cc1ccc(O)cc1)NC(=O)[C@H](CC(=O)O)NC(=O)[C@@H](NC(=O)[C@@H](NC(=O)[C@@H](NC(=O)[C@H](CCC(N)=O)NC(=O)[C@H](Cc1ccccc1)NC(=O)[C@H](Cc1ccc(O)cc1)NC(=O)[C@H](CCC(N)=O)NC(=O)[C@H](CO)NC(=O)[C@@H](NC(=O)[C@H](CC(C)C)NC(=O)[C@H](CO)NC(=O)[C@H](CCCNC(=N)N)NC(=O)[C@H](CC(C)C)NC(=O)[C@H](CC(C)C)NC(=O)[C@H](CCCNC(=N)N)NC(=O)[C@H](CCCCN)NC(=O)[C@H](CCCNC(=N)N)NC(=O)[C@H](CC(C)C)NC(=O)[C@H](CCCCN)NC(=O)[C@H](CCCNC(=N)N)NC(=O)[C@H](CC(C)C)NC(=O)[C@@H](N)Cc1c[nH]cn1)C(C)C)[C@@H](C)O)C(C)C)[C@@H](C)O)C(=O)O` [T-027] (H-HLRKLRKRLLRSLVSQYFQTVTDYGKDLM-OH; N-terminus and C-terminus assumed): the “GAG dependence of cholesterol import” value in the experiment with HepG2 cells [1] and with ARPE-19 cells [2] was “rely on GAG binding for cholesterol import activity” throughout. Further, the cholesterol import titration result is listed as “concentration-dependent cholesterol import activity” in the experiment on HepG2 cells [3] and “concentration-dependent increase in cholesterol import” in the experiment with ARPE-19 cells [4] (ARPE-19, 0.37-30 μM peptide, FIG. 15). Further, the EC50 in the experiment on ARPE-19 cells [5] stood at 40.1 µM; in experiment [6] (3.16-100 μM peptides, 15 minutes) it was 56.6 µM. In addition, the DMPC solubilizing activity entry in experiment [6] is recorded as “significant activity”.
`CC(C)C[C@H](NC(=O)[C@H](CCCNC(=N)N)NC(=O)[C@H](CC(=O)O)NC(=O)[C@H](CCC(N)=O)NC(=O)[C@H](CC(C)C)NC(=O)[C@H](CCCCN)NC(=O)[C@H](CC(=O)O)NC(=O)CNC(=O)[C@H](CC(=O)O)NC(=O)[C@H](CCCNC(=N)N)NC(=O)[C@H](Cc1ccccc1)NC(=O)[C@H](CC(C)C)NC(=O)[C@H](CCCNC(=N)N)NC(=O)[C@H](CCCCN)NC(=O)[C@H](CCCNC(=N)N)NC(=O)[C@H](CC(C)C)NC(=O)[C@H](CCCCN)NC(=O)[C@H](CCCNC(=N)N)NC(=O)[C@H](CC(C)C)NC(=O)[C@@H](N)Cc1c[nH]cn1)C(=O)N[C@@H](C)C(=O)N[C@@H](CCC(=O)O)C(=O)N[C@@H](Cc1ccc(O)cc1)C(=O)N[C@@H](CCC(N)=O)C(=O)N[C@@H](C)C(=O)N[C@@H](CCCNC(=N)N)C(=O)N[C@@H](C)C(=O)N[C@@H](CCCCN)C(=O)N[C@@H](CCC(=O)O)C(=O)N[C@@H](C)C(=O)N[C@@H](Cc1ccccc1)C(=O)N[C@@H](CC(=O)O)C(=O)N[C@@H](CCCNC(=N)N)C(=O)O` [T-060] (H-HLRKLRKRLFRDGDKLQDRLAEYQARAKEAFDR-OH; N-terminus and C-terminus assumed) returned a Kd at LDLR of 150 ± 41.7 µM.
In experiment [7], `CC(C)C[C@H](NC(=O)[C@H](C)NC(=O)[C@H](CCCNC(=N)N)NC(=O)[C@H](Cc1ccccc1)NC(=O)[C@H](CCCNC(=N)N)NC(=O)[C@H](CCC(=O)O)NC(=O)[C@@H](N)Cc1c[nH]c2ccccc12)C(=O)N[C@@H](Cc1ccccc1)C(=O)N[C@@H](CCCCN)C(=O)N[C@@H](CCC(=O)O)C(=O)N[C@@H](CC(C)C)C(=O)N[C@@H](C)C(=O)N[C@@H](CC(=O)O)C(=O)N[C@@H](Cc1ccc(O)cc1)C(=O)N[C@@H](Cc1ccccc1)C(=O)N[C@@H](CCCNC(=N)N)C(=O)N[C@@H](CC(=O)O)C(=O)N[C@@H](C)C(=O)O` [T-086] (H-WERFRALFKELADYFRDA-OH; N-terminus and C-terminus assumed) yielded an EC50 of 15.8 µM. Also, the cholesterol efflux titration entry in the experiment on HMC3 cells (HMC3, 0-100 μM peptide, LXR agonist) was “concentration-dependent increase in cholesterol efflux”. Moreover, in the experiment with HMC3 cells (HMC3, 20 μM peptide, 4 hours), the “cholesterol efflux in the presence of LXR agonist” value is “greater cholesterol efflux”. The cholesterol import titration entry in the experiment on ARPE-19 cells [4] (ARPE-19, peptide:lipid complexes from 30 μM diluted 1:3, FIG. 16) was “not able to increase cholesterol import”. Moreover, the DMPC solubilizing activity result in [6] was “significant activity”.

For orientation: EC50 means the concentration at which the effect is half-maximal. The low end stands for greater potency, the high end for weaker potency. As usually defined, the Kd is the constant that tells how readily two partners part at equilibrium. High values mean lower affinity, low ones higher affinity.
